Source: patent US8426446B2, “Acrylamide derivative and use thereof in manufacture of medicament” (Beijing Shiqiao Biopharm Co. Ltd., priority 2009, dated 2013)

Each compound was assayed on Human Leukemia Cell K562 (assay: Inhibitory effects on Human Leukemia Cell K562 (MTT)). Details: Homo sapiens, K562 cells, 72 h~120 h.
Assay type: cell-based
Experimental: K562 cells were seeded in RPMI1640 cell culture solution containing 10% of fetal calf serum (supplemented with 100 ku/L of penicillin and streptomycin each). Culture dish was placed in the cell incubator under 5% of CO2 at 37° C. The culture solution was centrifuged and replaced every 2-3 days to passage and collect cells.
Cells in logarithmic growth phase were formulated into the cell suspensions at the required concentration with RPMI1640 culture solution containing 10% fetal calf serum. The resulting mixture was added to 96-wells cell culture plate at 3,000 cells per well (100 μl); after 12 hours of culture, to each well was added different amount of stock solution. The final concentrations of the samples are 100 μg/ml, 10 μg/ml, 1 μg/ml, […], and 0.01 μg/ml respectively in triplicate. After 72 h˜120 h, supernatant was discarded. To each well was added […] fresh serum-free culture solution containing 5 mg/ml blue tetrazolium (MTT). After culturing for 4 hours at 37° C., the mixture was centrifuged at 3000 rpm/min and the supernatant was discarded. Formazan was dissolved with 200 μl DMSO. After vortex oscillation for 1 min, absorbance value (OD-value) was measured on microplate reader at the wavelength of 570/450 nm. Inhibition ratio=(control group OD-value−drug group OD-value)/control group OD-value×100%.
With `Cc1ccc(C(=O)Nc2ccc(C)c(NC(=O)/C=C/c3cccnc3)c2)cc1` [compound 1, N-(4-methyl-3-(3-(pyridin-3-yl)acrylamido)phenyl)-4-methylbenzamide] the IC50 was < 2.7 nM. With `Cc1ccc(NC(=O)c2ccc(F)cc2)cc1NC(=O)/C=C/c1cccnc1` [compound 2, N-(4-methyl-3-(3-(pyridin-3-yl)acrylamido)phenyl)-4-fluoro benzamide] the IC50 was < 2.7 nM. `Cc1ccc(NC(=O)c2ccc(F)cc2F)cc1NC(=O)/C=C/c1cccnc1` [compound 3, N-(4-methyl-3-(3-(pyridin-3-yl)acrylamido)phenyl)-2,4-difluoro benzamide] was tested, and the IC50 was < 2.5 nM. Work on `Cc1ccc(NC(=O)c2ccc(Cl)cc2Cl)cc1NC(=O)/C=C/c1cccnc1` [compound 4, N-(4-methyl-3-(3-(pyridin-3-yl)acrylamido)phenyl)-2,4-dichloro benzamide] yielded an IC50 of 2 to 20 nM. In the case of `Cc1ccc(NC(=O)c2cc(C(F)(F)F)cc(C(F)(F)F)c2)cc1NC(=O)/C=C/c1cccnc1` [compound 5, N-(4-methyl-3-(3-(pyridin-3-yl)acrylamido)phenyl)-3,5-bis-(trifluoromethyl)benzamide], the IC50 is reported as 1 to 20 nM. `Cc1ccc(NC(=O)c2ccc(C)c(C(F)(F)F)c2)cc1NC(=O)/C=C/c1cccnc1` [compound 7, N-(4-methyl-3-(3-(pyridin-3-yl)acrylamido)phenyl)-3-(rifluoromethyl)-4-methyl benzamide] was tested, and the IC50 was < 1 nM. In the case of `Cc1ccc(NC(=O)c2cc(F)cc(C(F)(F)F)c2)cc1NC(=O)/C=C/c1cccnc1` [compound 10, N-(4-methyl-3-(3-(pyridin-3-yl)acrylamido)phenyl)-3-fluoro-5-(trifluoromethyl)benzamide], the IC50 is reported as < 1 nM. `Cc1ccc(NC(=O)c2ccc(CN3CCN(C)CC3)cc2)cc1NC(=O)/C=C/c1cccnc1` [compound 11, N-(4-methyl-3-(3-(pyridin-3-yl)acrylamido)phenyl)-4-((4-methylpiperazin-1-yl)methyl)benzamide] was tested, and the IC50 was < 2 nM. With `Cc1ccc(NC(=O)c2ccc(CN3C[C@@H](C)N[C@@H](C)C3)cc2)cc1NC(=O)/C=C/c1cccnc1` [compound 12] the IC50 was < 5 nM. Work on `CCN1CCN(Cc2ccc(C(=O)Nc3ccc(C)c(NC(=O)/C=C/c4cccnc4)c3)cc2)CC1` [compound 13, N-(4-methyl-3-(3-(pyridin-3-yl)acrylamido)phenyl)-4-((4-ethylpiperazin-1-yl)methyl)benzamide] yielded an IC50 of 2 nM. With `Cc1ccc(NC(=O)c2ccc(CN3CCN(C)CC3)c(C(F)(F)F)c2)cc1NC(=O)/C=C/c1cccnc1` [compound 19, N-(4-methyl-3-(3-(pyridin-3-yl)acrylamido)phenyl)-4-((4-methylpiperazin-1-yl)methyl)-3-(trifluoromethyl)benzamide] the IC50 was < 1 nM. In the case of `CCN1CCN(Cc2ccc(C(=O)Nc3ccc(C)c(NC(=O)/C=C/c4cccnc4)c3)cc2C(F)(F)F)CC1` [compound 20, N-(4-methyl-3-(3-(pyridin-3-yl)acrylamido)phenyl)-4-((4-ethylpiperazin-1-yl)methyl)-3-(trifluoromethyl)benzamide], the IC50 is reported as < 1 nM. In the case of `Cc1ccc(NC(=O)c2ccc(CN3CCOCC3)c(C(F)(F)F)c2)cc1NC(=O)/C=C/c1cccnc1` [compound 21, N-(4-methyl-3-(3-(pyridin-3-yl)acrylamido)phenyl)-4-(morpholin-4-ylmethyl)-3-(trifluoromethyl)benzamide], the IC50 is reported as 2 nM. For `Cc1ccc(NC(=O)c2ccc(CN3CC[C@@H](N(C)C)C3)c(C(F)(F)F)c2)cc1NC(=O)/C=C/c1cccnc1` [compound 22, N-(4-methyl-3-(3-(pyridin-3-yl)acrylamido)phenyl)-4-(((R)-3-(dimethylamino)pyrrolidin-1-yl)methyl)-3-(trifluoromethyl)benzamide], the IC50 was < 1 nM. With `Cc1ccc(NC(=O)c2ccc(CN3CCC(N(C)C)C3)c(C(F)(F)F)c2)cc1NC(=O)/C=C/c1cccnc1` [compound 23, N-(4-methyl-3-(3-(pyridin-3-yl)acrylamido)phenyl)-4-(((S)-3-(dimethylamino)pyrrolidin-1-yl)methyl)-3-(trifluoromethyl)benzamide] the IC50 was < 1 nM. Compound `Cc1ccc(NC(=O)c2ccc(CN3CCCN(C)CC3)c(C(F)(F)F)c2)cc1NC(=O)/C=C/c1cccnc1` [compound 25, N-(4-methyl-3-(3-(pyridin-3-yl)acrylamido)phenyl)-4-((4-methyl-1,4-homopiperazin-1-yl)methyl)-3-(trifluoromethyl)benzamide] has an IC50 of 2 to 20 nM. In the case of `Cc1ccc(NC(=O)c2ccc(CN3CCN(C)CC3)c(Br)c2)cc1NC(=O)/C=C/c1cccnc1` [compound 26, N-(4-methyl-3-(3-(pyridin-3-yl)acrylamido)phenyl)-4-((4-dimethylpiperazin-1-yl)methyl)-3-bromobenzamide], the IC50 is reported as 2 to 20 nM. `Cc1ccc(NC(=O)c2cc(C(F)(F)F)cc(C(F)(F)F)c2)cc1NC(=O)/C=C/c1cncnc1` [compound 31, N-(4-methyl-3-(3-(pyrimidin-5-yl)acrylamido)phenyl)-3,5-bis-(trifluoromethyl)benzamide] was tested, and the IC50 was < 1 nM. For `Cc1ccc(NC(=O)c2ccc(C)c(C(F)(F)F)c2)cc1NC(=O)/C=C/c1cncnc1` [compound 32, N-(4-methyl-3-(3-(pyrimidin-5-yl)acrylamido)phenyl)-4-methyl-3-(trifluoromethyl)benzamide], the IC50 was < 1 nM. `Cc1ccc(NC(=O)c2cc(F)cc(C(F)(F)F)c2)cc1NC(=O)/C=C/c1cncnc1` [compound 33, N-(4-methyl-3-(3-(pyrimidin-5-yl)acrylamido)phenyl)-5-fluoro-3-(trifluoromethyl)benzamide] was tested, and the IC50 was < 1 nM. `Cc1ccc(NC(=O)c2ccc(CN3CCN(C)CC3)c(C(F)(F)F)c2)cc1NC(=O)/C=C/c1cncnc1` [compound 39, N-(4-methyl-3-(3-(pyrimidin-5-yl)acrylamido)phenyl)-4-((4-methylpiperazin-1-yl)methyl)-3-(trifluoromethyl)benzamide] was tested, and the IC50 was < 1 nM. `Cc1ccc(NC(=O)c2ccc(CN3CC[C@@H](N(C)C)C3)c(C(F)(F)F)c2)cc1NC(=O)/C=C/c1cncnc1` [compound 42, N-(4-methyl-3-(3-(pyrimidin-5-yl)acrylamido)phenyl)-4-(((R)-3-(dimethylamino)pyrrolidin-1-yl)methyl)-3-(trifluoromethyl)benzamide] was tested, and the IC50 was < 1 nM. `Cc1ccc(NC(=O)c2ccc(CN3CCC(N(C)C)C3)c(C(F)(F)F)c2)cc1NC(=O)/C=C/c1cncnc1` [compound 43, N-(4-methyl-3-(3-(pyrimidin-5-yl)acrylamido)phenyl)-4-(((S)-3-(dimethylamino)pyrrolidin-1-yl)methyl)-3-(trifluoromethyl)benzamide] was tested, and the IC50 was < 1 nM. In the case of `Cc1ccc(C(=O)Nc2ccc(F)c(Cl)c2)cc1NC(=O)/C=C/c1cccnc1` [compound 50, N-(3-chloro-4-fluorophenyl)-4-methyl-3-(3-(pyridin-3-yl)acrylamido)benzamide], the IC50 is reported as 2 to 20 nM. `Cc1ccc(C(=O)Nc2cccc(C(F)(F)F)c2)cc1NC(=O)/C=C/c1cccnc1` [compound 51, N-(3-(trifluoromethyl)phenyl)-4-methyl-3-(3-(pyridin-3-yl)acrylamido)benzamide] was tested, and the IC50 was < 2 nM. For `Cc1ccc(C(=O)Nc2ccc(Br)cc2F)cc1NC(=O)/C=C/c1cccnc1` [compound 52, N-(4-bromo-2-fluorophenyl)-4-methyl-3-(3-(pyridin-3-yl)acrylamido)benzamide], the IC50 was < 2 nM. In the case of `Cc1ccc(C(=O)Nc2ccc(OC(F)(F)F)cc2)cc1NC(=O)/C=C/c1cccnc1` [compound 53, N-(4-(trifluoromethoxy)phenyl)-4-methyl-3-(3-(pyridin-3-yl)acrylamido)benzamide], the IC50 is reported as < 1 nM. `Cc1cn(-c2ccc(NC(=O)c3ccc(C)c(NC(=O)/C=C/c4cccnc4)c3)cc2C(F)(F)F)cn1` [compound 55, N-(4-(4-methyl-1H-imidazol-1-yl)-3-(trifluoromethyl)phenyl)-4-methyl-3-(3-(pyridin-3-yl)acrylamido)benzamide] was tested, and the IC50 was < 2 nM. Work on `Cc1ccc(C(=O)Nc2ccc(Cl)c(Cl)c2)cc1NC(=O)/C=C/c1cccnc1` [compound 56, N-(3,4-dichlorophenyl)-4-methyl-3-(3-(pyridin-3-yl)acrylamido)benzamide] yielded an IC50 of 2 to 20 nM. With `Cc1ccc(C(=O)Nc2cc(C(F)(F)F)ccc2Cl)cc1NC(=O)/C=C/c1cccnc1` [compound 57, N-(2-chloro-5-(trifluoromethyl)phenyl)-4-methyl-3-(3-(pyridin-3-yl)acrylamido)benzamide] the IC50 was 2 to 20 nM. `Cc1ccc(C(=O)Nc2ccc(Cl)c(C(F)(F)F)c2)cc1NC(=O)/C=C/c1cccnc1` [compound 58, N-(4-chloro-3-(trifluoromethyl)phenyl)-4-methyl-3-(3-(pyridin-3-yl)acrylamido)benzamide] was tested, and the IC50 was < 1 nM.

Same assay, conditions: K562 cells, 72 h~120 h
With `Cc1ccc(NC(=O)c2ccc(CN3CCC(N(C)C)C3)c(C(F)(F)F)c2)cc1NC(=O)/C=C/c1cccnc1` (stereo not drawn) [compound 24, N-(4-methyl-3-(3-(pyridin-3-yl)acrylamido)phenyl)-4-((3-(dimethylamino)pyrrolidin-1-yl)methyl)-3-(trifluoromethyl)benzamide] the IC50 was < 1 nM. For `Cc1ccc(NC(=O)c2ccc(CN3CCC(N(C)C)C3)c(C(F)(F)F)c2)cc1NC(=O)/C=C/c1cncnc1` (stereo not drawn) [compound 44, N-(4-methyl-3-(3-(pyrimidin-5-yl)acrylamido)phenyl)-4-((3-(dimethylamino)pyrrolidin-1-yl)methyl)-3-(trifluoromethyl)benzamide], the IC50 was < 1 nM.
